Reference: patent US20260266848A1, “COMPOSITIONS AND METHODS FOR DIAGNOSING AND TREATING DYSTONIA” (Duke University, priority 2023, published 2026)

Tested on: WT MEF EVs
Assay: Quantitative LC-MS/MS proteomics of EVs from ISRIB-treated WT MEF cultures
Type: cell-based, mouse
Parameters: key to ISRIB and DYT Parallel Direction / ISRIB and DYT Parallel Direction, Ctdsp1 / ISRIB and DYT Parallel Direction, Pcdh19 / ISRIB and DYT Parallel Direction, Tspan7 / ISRIB and DYT Parallel Direction, Myo1e / ISRIB and DYT Parallel Direction, Plpp3 / ISRIB and DYT Parallel Direction, Sh3bp4 / ISRIB and DYT Parallel Direction, Dnajc7 / ISRIB and DYT Parallel Direction, Drg1 / ISRIB and DYT Parallel Direction, Maea: YES = protein abundance effect similar to DYT/WT

## O=C(COc1ccc(Cl)cc1)NC1CCC(NC(=O)COc2ccc(Cl)cc2)CC1 (stereo not shown) [ISRIB, reference compound]
50 nM, 24 h, p<0.05
  genotype-disrupted proteins (n=363) reproduced by ISRIB: 7%
50 nM, 24 h, p<0.05, of 1974 proteins
  EV proteins disrupted by ISRIB treatment of WT cells: 5%
EV protein Brd4 (Q9ESU6)
  WT + ISRIB/WT Cohen's d, Brd4: 0.37
EV protein Cdk11b (P24788)
  WT + ISRIB/WT Cohen's d, Cdk11b: 4.28
EV protein Cfdp1 (O88271)
  WT + ISRIB/WT Cohen's d, Cfdp1: 8.58
EV protein Cstf1 (Q99LC2)
  WT + ISRIB/WT Cohen's d, Cstf1: 1.34
EV protein Ctdsp1 (P58466)
  WT + ISRIB/WT Cohen's d, Ctdsp1: −10.61
EV protein Ctdsp1 (P58466), WT + ISRIB vs WT
  ISRIB and DYT Parallel Direction, Ctdsp1: YES
EV protein Dcaf8 (Q8N7N5)
  WT + ISRIB/WT Cohen's d, Dcaf8: 0.84
EV protein Dnajc7 (Q9QYI3)
  WT + ISRIB/WT Cohen's d, Dnajc7: −2.37
EV protein Dnajc7 (Q9QYI3), WT + ISRIB vs WT
  ISRIB and DYT Parallel Direction, Dnajc7: YES
EV protein Drg1 (P32233)
  WT + ISRIB/WT Cohen's d, Drg1: −1.58
EV protein Drg1 (P32233), WT + ISRIB vs WT
  ISRIB and DYT Parallel Direction, Drg1: YES
EV protein Edil3 (O35474)
  WT + ISRIB/WT Cohen's d, Edil3: 3.24
EV protein Grwd1 (Q810D6)
  WT + ISRIB/WT Cohen's d, Grwd1: 4.92
EV protein Heatr3 (Q8BQM4)
  WT + ISRIB/WT Cohen's d, Heatr3: 1.40
EV protein Hmga2 (P52927)
  WT + ISRIB/WT Cohen's d, Hmga2: 0.21
EV protein Kntc1 (Q8C3Y4)
  WT + ISRIB/WT Cohen's d, Kntc1: 0.31
EV protein Lpar6 (Q8BMC0)
  WT + ISRIB/WT Cohen's d, Lpar6: −1.25
EV protein Lsm4 (Q9QXA5)
  WT + ISRIB/WT Cohen's d, Lsm4: 0.61
EV protein Maea (Q4VC33)
  WT + ISRIB/WT Cohen's d, Maea: −2.82
EV protein Maea (Q4VC33), WT + ISRIB vs WT
  ISRIB and DYT Parallel Direction, Maea: YES
EV protein Myo1e (E9Q634)
  WT + ISRIB/WT Cohen's d, Myo1e: −1.56
EV protein Myo1e (E9Q634), WT + ISRIB vs WT
  ISRIB and DYT Parallel Direction, Myo1e: YES
EV protein Naa50 (Q6PGB6)
  WT + ISRIB/WT Cohen's d, Naa50: 1.03
EV protein Ndrg1 (Q62433)
  WT + ISRIB/WT Cohen's d, Ndrg1: 1.14
EV protein P3h4 (Q8K2B0)
  WT + ISRIB/WT Cohen's d, P3h4: 1.07
EV protein Pacsin3 (Q99JB8)
  WT + ISRIB/WT Cohen's d, Pacsin3: −2.60
EV protein Pcdh19 (Q80TF3)
  WT + ISRIB/WT Cohen's d, Pcdh19: −2.26
EV protein Pcdh19 (Q80TF3), WT + ISRIB vs WT
  ISRIB and DYT Parallel Direction, Pcdh19: YES
EV protein Plpp3 (Q99JY8)
  WT + ISRIB/WT Cohen's d, Plpp3: 4.49
EV protein Plpp3 (Q99JY8), WT + ISRIB vs WT
  ISRIB and DYT Parallel Direction, Plpp3: YES
EV protein Rbm17 (Q8JZX4)
  WT + ISRIB/WT Cohen's d, Rbm17: 0.36
EV protein Sbno1 (Q689Z5)
  WT + ISRIB/WT Cohen's d, Sbno1: 0.31
EV protein Sec61b (Q9CQS8)
  WT + ISRIB/WT Cohen's d, Sec61b: 3.71
EV protein Sh3bp4 (Q921I6)
  WT + ISRIB/WT Cohen's d, Sh3bp4: −0.29
EV protein Sh3bp4 (Q921I6), WT + ISRIB vs WT
  ISRIB and DYT Parallel Direction, Sh3bp4: YES
EV protein Srrm2 (Q8BTI8)
  WT + ISRIB/WT Cohen's d, Srrm2: 0.17
EV protein Sumo1 (P63166)
  WT + ISRIB/WT Cohen's d, Sumo1: 5.82
EV protein Tes (P47226)
  WT + ISRIB/WT Cohen's d, Tes: 1.50
EV protein Timp3 (P39876)
  WT + ISRIB/WT Cohen's d, Timp3: −3.42
EV protein Tspan7 (Q62283)
  WT + ISRIB/WT Cohen's d, Tspan7: −0.21
EV protein Tspan7 (Q62283), WT + ISRIB vs WT
  ISRIB and DYT Parallel Direction, Tspan7: YES
EV protein Unc119b (Q8C4B4)
  WT + ISRIB/WT Cohen's d, Unc119b: 0.17
ISRIB
  proteins reduced in both mouse and human EVs whose abundance is modulated toward DYT1-like in WT cells (and toward correction by salubrinal in DYT1 cells): 4 of the 7
WT+ISRIB/WT, 50 nM, 24 h
  Acaa1a (ACAA1) EV abundance Cohen's d: −0.8751
  Acaa1a (ACAA1) EV abundance Log2_FC: −0.6305
  Ano6 (ANO6) EV abundance Cohen's d: 0.8352
  Ano6 (ANO6) EV abundance Log2_FC: 0.2496
  Ap1b1 (AP1B1) EV abundance Cohen's d: −0.2382
  Ap1b1 (AP1B1) EV abundance Log2_FC: −0.1813
  Arl8b (ARL8B) EV abundance Cohen's d: −0.8778
  Arl8b (ARL8B) EV abundance Log2_FC: −0.2989
  Bzw2 (BZW2) EV abundance Cohen's d: −0.9186
  Bzw2 (BZW2) EV abundance Log2_FC: 0.7265
  Cryab (CRYAB) EV abundance Cohen's d: −0.1165
  Cryab (CRYAB) EV abundance Log2_FC: 0.1177
  DIst (DLST) EV abundance Cohen's d: 0.6821
  DIst (DLST) EV abundance Log2_FC: −1.897
  Ehd4 (EHD4) EV abundance Cohen's d: −1.159
  Ehd4 (EHD4) EV abundance Log2_FC: −0.09267
  Flna (FLNA) EV abundance Cohen's d: −0.09039
  Flna (FLNA) EV abundance Log2_FC: −0.2341
  Fscn1 (FSCN1) EV abundance Cohen's d: −0.9728
  Fscn1 (FSCN1) EV abundance Log2_FC: −0.2944
  Gart (GART) EV abundance Cohen's d: −0.1196
  Gart (GART) EV abundance Log2_FC: −0.2546
  Hist1h1b (H1-5) EV abundance Cohen's d: −0.4556
  Hist1h1b (H1-5) EV abundance Log2_FC: −0.08676
  Hnrnpc (HNRNPC) EV abundance Cohen's d: 1.199
